From the supplement of paper PMC10307832

Key:
Test in all cases: relative viability (nuclei count vs DMSO), 5 days (fraction); higher = more cells survive
NCI-H647 = test system: NCI-H647
How it was run: (§1)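 Medians of duplicate plates are given as relative viability. That measure is the nuclei count in treated wells divided by the count in vehicle wells. Counts were taken on 4× images of lung cancer cell lines in 1536-well plates, 5 days after pin-tool dosing the day after seeding with one drug alone or a fixed anchor-drug dose plus five library-drug doses (not always all listed) in √10 steps.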

NCI-H1792 = test system: NCI-H1792
How it was run: as §1

LK-2 = test system: LK-2
How it was run: as §1

NCI-H358 = test system: NCI-H358
How it was run: as §1

NCI-H2347 = test system: NCI-H2347
How it was run: as §1

COR-L23 = test system: COR-L23
How it was run: as §1

NCI-H1975 = test system: NCI-H1975
How it was run: as §1

A-427 = test system: A-427
How it was run: as §1

NCI-H1437 = test system: NCI-H1437
How it was run: as §1

SW 900 = test system: SW 900
How it was run: as §1

NCI-H2009 = test system: NCI-H2009
How it was run: as §1

SK-MES-1 = test system: SK-MES-1
How it was run: as §1

NCI-H520 = test system: NCI-H520
How it was run: as §1

NCI-H460 = test system: NCI-H460
How it was run: as §1

COR-L 105 = test system: COR-L 105
How it was run: as §1

NCI-H1650 = test system: NCI-H1650
How it was run: as §1

HCC-366 = test system: HCC-366
How it was run: as §1

EPLC-272H = test system: EPLC-272H
How it was run: as §1

HCC-44 = test system: HCC-44
How it was run: as §1

HCC-78 = test system: HCC-78
How it was run: as §1

EKVX = test system: EKVX
How it was run: as §1

SMILES: Cc1cn(-c2cc(NC(=O)c3ccc(C)c(Nc4nccc(-c5cccnc5)n4)c3)cc(C(F)(F)F)c2)cn1 [Nilotinib] + Nc1nc2[nH]cc(CCc3ccc(C(=O)N[C@@H](CCC(=O)O)C(=O)O)cc3)c2c(=O)[nH]1 [Pemetrexed] (partner 0.2 µM)
- relative viability (NCI-H647; first compound 0.001 µM): 0.158
- relative viability (NCI-H647; first compound 0.003162 µM): 0.158
- relative viability (NCI-H647; first compound 0.01 µM): 0.118
- relative viability (NCI-H647; first compound 0.03162 µM): 0.138
- relative viability (NCI-H647; first compound 0.1 µM): 0.118
- relative viability (NCI-H1792; first compound 0.001 µM): 0.623
- relative viability (NCI-H1792; first compound 0.003162 µM): 0.899
- relative viability (NCI-H1792; first compound 0.01 µM): 0.72
- relative viability (NCI-H1792; first compound 0.03162 µM): 0.525
- relative viability (NCI-H1792; first compound 0.1 µM): 0.709
- relative viability (LK-2; first compound 0.001 µM): 0.184
- relative viability (LK-2; first compound 0.003162 µM): 0.3
- relative viability (LK-2; first compound 0.01 µM): 0.332
- relative viability (LK-2; first compound 0.03162 µM): 0.193
- relative viability (LK-2; first compound 0.1 µM): 0.225
- relative viability (NCI-H358; first compound 0.001 µM): 0.187
- relative viability (NCI-H358; first compound 0.003162 µM): 0.175
- relative viability (NCI-H358; first compound 0.01 µM): 0.169
- relative viability (NCI-H358; first compound 0.03162 µM): 0.144
- relative viability (NCI-H358; first compound 0.1 µM): 0.152
- relative viability (NCI-H2347; first compound 0.001 µM): 0.401
- relative viability (NCI-H2347; first compound 0.003162 µM): 0.384
- relative viability (NCI-H2347; first compound 0.01 µM): 0.435
- relative viability (NCI-H2347; first compound 0.03162 µM): 0.517
- relative viability (NCI-H2347; first compound 0.1 µM): 0.418
- relative viability (COR-L23; first compound 0.001 µM): 0.187
- relative viability (COR-L23; first compound 0.003162 µM): 0.183
- relative viability (COR-L23; first compound 0.01 µM): 0.19
- relative viability (COR-L23; first compound 0.03162 µM): 0.163
- relative viability (COR-L23; first compound 0.1 µM): 0.163
- relative viability (NCI-H1975; first compound 0.001 µM): 0.294
- relative viability (NCI-H1975; first compound 0.003162 µM): 0.298
- relative viability (NCI-H1975; first compound 0.01 µM): 0.257
- relative viability (NCI-H1975; first compound 0.03162 µM): 0.211
- relative viability (NCI-H1975; first compound 0.1 µM): 0.235
- relative viability (A-427; first compound 0.003162 µM): 0.963
- relative viability (A-427; first compound 0.01 µM): 0.952
- relative viability (A-427; first compound 0.1 µM): 0.852
- relative viability (NCI-H1437; first compound 0.001 µM): 0.28
- relative viability (NCI-H1437; first compound 0.003162 µM): 0.34
- relative viability (NCI-H1437; first compound 0.01 µM): 0.343
- relative viability (NCI-H1437; first compound 0.03162 µM): 0.276
- relative viability (NCI-H1437; first compound 0.1 µM): 0.311
- relative viability (SW 900; first compound 0.003162 µM): 0.459
- relative viability (SW 900; first compound 0.01 µM): 0.38
- relative viability (SW 900; first compound 0.03162 µM): 0.239
- relative viability (SW 900; first compound 0.1 µM): 0.245
- relative viability (NCI-H2009; first compound 0.001 µM): 0.926
- relative viability (NCI-H2009; first compound 0.003162 µM): 0.964
- relative viability (NCI-H2009; first compound 0.01 µM): 0.919
- relative viability (NCI-H2009; first compound 0.03162 µM): 1.06
- relative viability (NCI-H2009; first compound 0.1 µM): 0.989
- relative viability (SK-MES-1; first compound 0.001 µM): 0.958
- relative viability (SK-MES-1; first compound 0.003162 µM): 0.841
- relative viability (SK-MES-1; first compound 0.01 µM): 1.05
- relative viability (SK-MES-1; first compound 0.03162 µM): 0.868
- relative viability (SK-MES-1; first compound 0.1 µM): 0.503
- relative viability (NCI-H520; first compound 0.001 µM): 0.591
- relative viability (NCI-H520; first compound 0.003162 µM): 0.674
- relative viability (NCI-H520; first compound 0.01 µM): 0.717
- relative viability (NCI-H520; first compound 0.03162 µM): 0.578
- relative viability (NCI-H520; first compound 0.1 µM): 0.556
- relative viability (NCI-H460; first compound 0.001 µM): 0.0733
- relative viability (NCI-H460; first compound 0.003162 µM): 0.0599
- relative viability (NCI-H460; first compound 0.01 µM): 0.0632
- relative viability (NCI-H460; first compound 0.03162 µM): 0.0736
- relative viability (NCI-H460; first compound 0.1 µM): 0.0505
- relative viability (COR-L 105; first compound 0.001 µM): 0.975
- relative viability (COR-L 105; first compound 0.003162 µM): 1.17
- relative viability (COR-L 105; first compound 0.01 µM): 1.55
- relative viability (COR-L 105; first compound 0.03162 µM): 1.13
- relative viability (COR-L 105; first compound 0.1 µM): 1.15
- relative viability (NCI-H1650; first compound 0.001 µM): 0.409
- relative viability (NCI-H1650; first compound 0.003162 µM): 0.526
- relative viability (NCI-H1650; first compound 0.01 µM): 0.39
- relative viability (NCI-H1650; first compound 0.03162 µM): 0.375
- relative viability (NCI-H1650; first compound 0.1 µM): 0.498
- relative viability (HCC-366; first compound 0.001 µM): 0.157
- relative viability (HCC-366; first compound 0.003162 µM): 0.129
- relative viability (HCC-366; first compound 0.01 µM): 0.163
- relative viability (HCC-366; first compound 0.03162 µM): 0.106
- relative viability (HCC-366; first compound 0.1 µM): 0.115
- relative viability (EPLC-272H; first compound 0.001 µM): 0.239
- relative viability (EPLC-272H; first compound 0.003162 µM): 0.324
- relative viability (EPLC-272H; first compound 0.01 µM): 0.195
- relative viability (EPLC-272H; first compound 0.03162 µM): 0.309
- relative viability (EPLC-272H; first compound 0.1 µM): 0.171
- relative viability (HCC-44; first compound 0.001 µM): 0.662
- relative viability (HCC-44; first compound 0.003162 µM): 0.574
- relative viability (HCC-44; first compound 0.01 µM): 0.613
- relative viability (HCC-44; first compound 0.1 µM): 0.66
- relative viability (HCC-78; first compound 0.001 µM): 0.897
- relative viability (HCC-78; first compound 0.003162 µM): 0.654
- relative viability (HCC-78; first compound 0.01 µM): 0.836
- relative viability (HCC-78; first compound 0.03162 µM): 0.8
- relative viability (HCC-78; first compound 0.1 µM): 0.935
- relative viability (EKVX; first compound 0.001 µM): 0.33
- relative viability (EKVX; first compound 0.003162 µM): 0.27
- relative viability (EKVX; first compound 0.01 µM): 0.471
- relative viability (EKVX; first compound 0.03162 µM): 0.353
